Target: human F508del-CFTR (Homo sapiens, UniProt P13569, DEL508-508)
Assay: F508del-CFTR cell surface expression (corrector activity), DiscoveRx ß-galactosidase complementation chemiluminescence assay in recombinant U2OS cell line;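 also: U2OS cells co-expressing ProLink-tagged F508del-CFTR and a membrane-anchored enzyme acceptor, where more surface CFTR restores β-galactosidase activity measured by chemiluminescence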
Settings: for EC50: EC50, F508del-CFTR cell surface expression; for Emax: U2OS
[1] = U2OS cell line, 16h compound incubation, geomean values
[2] = in relation to the Emax of the corrector lumacaftor (=100%), U2OS cell line, 16h compound incubation, arithmetic mean values
[3] = U2OS cells, 16h compound incubation, geomean values
[4] = in relation to Emax of corrector lumacaftor (=100%), arithmetic mean values

Sequence of human F508del-CFTR (P13569 with tags, fused parts or gaps DEL508-508): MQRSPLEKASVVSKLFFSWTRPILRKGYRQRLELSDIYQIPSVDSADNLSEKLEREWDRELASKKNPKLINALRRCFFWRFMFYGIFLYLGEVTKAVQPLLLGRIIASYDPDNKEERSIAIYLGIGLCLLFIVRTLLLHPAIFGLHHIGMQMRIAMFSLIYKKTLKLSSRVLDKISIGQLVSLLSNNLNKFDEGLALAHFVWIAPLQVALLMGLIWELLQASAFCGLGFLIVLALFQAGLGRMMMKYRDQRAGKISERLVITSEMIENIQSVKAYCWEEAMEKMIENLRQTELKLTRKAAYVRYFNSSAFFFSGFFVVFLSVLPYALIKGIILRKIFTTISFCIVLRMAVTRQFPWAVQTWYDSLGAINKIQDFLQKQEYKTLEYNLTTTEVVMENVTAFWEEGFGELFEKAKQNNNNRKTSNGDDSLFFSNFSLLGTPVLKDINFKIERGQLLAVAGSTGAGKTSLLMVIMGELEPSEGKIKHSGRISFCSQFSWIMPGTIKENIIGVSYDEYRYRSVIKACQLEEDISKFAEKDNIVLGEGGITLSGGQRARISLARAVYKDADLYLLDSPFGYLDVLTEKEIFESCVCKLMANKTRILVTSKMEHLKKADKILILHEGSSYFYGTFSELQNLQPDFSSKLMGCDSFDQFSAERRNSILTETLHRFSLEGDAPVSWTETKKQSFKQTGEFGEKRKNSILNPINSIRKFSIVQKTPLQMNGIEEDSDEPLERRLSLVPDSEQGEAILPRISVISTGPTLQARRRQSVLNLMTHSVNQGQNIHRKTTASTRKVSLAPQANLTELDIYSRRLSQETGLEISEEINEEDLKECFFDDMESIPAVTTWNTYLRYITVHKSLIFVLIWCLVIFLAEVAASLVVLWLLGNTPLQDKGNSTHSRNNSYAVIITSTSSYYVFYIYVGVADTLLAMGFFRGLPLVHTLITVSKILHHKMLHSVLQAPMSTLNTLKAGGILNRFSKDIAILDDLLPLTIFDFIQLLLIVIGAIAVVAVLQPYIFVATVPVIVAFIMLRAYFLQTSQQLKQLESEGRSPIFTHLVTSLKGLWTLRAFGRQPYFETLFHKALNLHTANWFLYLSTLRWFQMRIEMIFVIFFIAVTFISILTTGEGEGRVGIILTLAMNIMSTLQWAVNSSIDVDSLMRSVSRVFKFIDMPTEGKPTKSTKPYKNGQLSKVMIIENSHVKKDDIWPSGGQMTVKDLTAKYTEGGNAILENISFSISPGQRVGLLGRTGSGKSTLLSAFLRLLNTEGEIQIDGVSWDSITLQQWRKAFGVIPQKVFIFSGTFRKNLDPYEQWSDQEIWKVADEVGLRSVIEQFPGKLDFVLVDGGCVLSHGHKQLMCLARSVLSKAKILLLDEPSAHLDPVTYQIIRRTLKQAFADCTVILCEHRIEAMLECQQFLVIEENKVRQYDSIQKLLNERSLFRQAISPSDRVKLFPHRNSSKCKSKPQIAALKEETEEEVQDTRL

Row | SMILES | EC50 [3] [nM] | Emax [4] [%] | EC50 [1] [nM] | Emax [2] [%] | further results
1 | Cc1cc(CCNC(=O)[C@@H]2CC(=O)N(C)[C@@H](CC(C)C)C(=O)N3CCCC[C@@H]3C(=O)N[C@H](Cc3ccccc3)COc3cnc4ccccc4c3C(=O)N2)on1 [Example 367, (9S,13S,19aR,22R)-22-benzyl-13-isobutyl-12-methyl-N-(2-(3-methylisoxazol-5-yl)ethyl)-7,11,14,20-tetraoxo-7,8,9,10,11,12,13,14,17,18,19,19a,20,21,22,23-hexadecahydro-16H-pyrido[2′,1′:6,7][1]oxa[4,7,10,14]tetraazacycloheptadecino[17,16-c]quinoline-9-carboxamide] | – | – | 249 | 321 | –
2 | [2H]C([2H])([2H])Oc1nc(C)cc2c1C(=O)N[C@H](C(=O)NCCc1cc(C3CC3)no1)CC(=O)N(C)[C@@H](CC(C)C)C(=O)N1CCCC[C@@H]1C(=O)N[C@H](Cc1ccccc1)CO2 [Example 659, (7S,11S,17aR,20R)-20-benzyl-N-(2-(3-cyclopropylisoxazol-5-yl)ethyl)-11-isobutyl-4-(methoxy-d3)-2,10-dimethyl-5,9,12,18-tetraoxo-5,6,7,8,9,10,11,12,15,16,17,17a,18,19,20,21-hexadecahydro-14H-dipyrido[2,1-f:3′,4′-p][1]oxa[4,7,10,14]tetraazacycloheptadecine-7-carboxamide] | 359 | 325 | – | – | –
3 | COc1cccc(CCNC(=O)[C@@H]2CC(=O)N(C)[C@@H](CC(C)C)C(=O)N(C)CC(=O)N[C@H](Cc3ccccc3)COc3ccsc3C(=O)N2)c1 [Example 240, (6R,12S,16S)-6-benzyl-12-isobutyl-N-(3-methoxyphenethyl)-10,13-dimethyl-8,11,14,18-tetraoxo-5,6,7,8,9,10,11,12,13,14,15,16,17,18-tetradecahydrothieno[2,3-p][1]oxa[4,7,10,14]tetraazacycloheptadecine-16-carboxamide] | – | – | 1260 | 77 | –
4 | COc1cccc(CCNC(=O)[C@@H]2CC(=O)N(C)[C@@H](CC(C)C)C(=O)N3CCN(C(C)C)C[C@@H]3C(=O)N[C@H](Cc3ccccc3)COc3ccc4nc(C)oc4c3C(=O)N2)c1 [Example 352, (8S,12S,18aR,21R)-21-benzyl-12-isobutyl-17-isopropyl-N-(3-methoxyphenethyl)-4,11-dimethyl-6,10,13,19-tetraoxo-6,7,8,9,10,11,12,13,16,17,18,18a,19,20,21,22-hexadecahydro-15H-oxazolo[4′,5′:5,6]benzo[1,2-p]pyrazino[2,1-f][1]oxa[4,7,10,14]tetraazacycloheptadecine-8-carboxamide] | – | – | 297 | 262 | –
5 | COc1nc(C)cc2c1C(=O)N[C@H](C(=O)NCCc1cc(C3CC3)no1)CC(=O)N(C)[C@@H](CC(C)C)C(=O)N1CCCC[C@@H]1C(=O)N[C@H](Cc1ccccc1)CO2 [Example 658, (7S,11S,17aR,20R)-20-benzyl-N-(2-(3-cyclopropylisoxazol-5-yl)ethyl)-11-isobutyl-4-methoxy-2,10-dimethyl-5,9,12,18-tetraoxo-5,6,7,8,9,10,11,12,15,16,17,17a,18,19,20,21-hexadecahydro-14H-dipyrido[2,1-f:3′,4′-p][1]oxa[4,7,10,14]tetraazacycloheptadecine-7-carboxamide] | 283 | 300 | – | – | –
6 | CC(C)C[C@H]1C(=O)N2CCOC[C@@H]2C(=O)N[C@H](Cc2ccccc2)COc2cnc3ccccc3c2C(=O)N[C@H](C(=O)NCCc2cccc(Br)c2)CC(=O)N1C [Example 52, (9S,13S,19aR,22R)-22-benzyl-N-(3-bromophenethyl)-13-isobutyl-12-methyl-7,11,14,20-tetraoxo-7,8,9,10,11,12,13,14,16,17,19,19a,20,21,22,23-hexadecahydro-[1,4]oxazino[3′,4′:6,7][1]oxa[4,7,10,14]tetraazacycloheptadecino[17,16-c]quinoline-9-carboxamide] | – | – | 348 | 176 | –
7 | CC(C)C[C@H]1C(=O)N(C)C2(CC2)C(=O)N[C@H](Cc2ccccc2)COc2cnc3ccc(F)cc3c2C(=O)N[C@H](C(=O)NCCc2ccc(-n3nccn3)cc2)CC(=O)N1C [Example 135, (3′S,7′S,13′R)-N-(4-(2H-1,2,3-triazol-2-yl)phenethyl)-13′-benzyl-20′-fluoro-7′-isobutyl-6′,9′-dimethyl-1′,5′,8′,11′-tetraoxo-2′,3′,4′,5′,6′,7′,8′,9′,11′,12′,13′,14′-dodecahydro-1′H-spiro[cyclopropane-1,10′-[1]oxa[4,7,10,14]tetraazacycloheptadecino[17,16-c]quinoline]-3′-carboxamide] | – | – | 177 | 255 | –
8 | COc1nc(C)cc2c1C(=O)N[C@H](C(=O)NCCc1cc(C(F)(F)F)no1)CC(=O)N(C)[C@@H](CC(C)C)C(=O)N1CCCC[C@H]1C(=O)N[C@H](Cc1ccccc1)CO2 [Example 667, (7S,11S,17aS,20R)-20-benzyl-11-isobutyl-4-methoxy-2,10-dimethyl-5,9,12,18-tetraoxo-N-(2-(3-(trifluoromethyl)isoxazol-5-yl)ethyl)-5,6,7,8,9,10,11,12,15,16,17,17a,18,19,20,21-hexadecahydro-14H-dipyrido[2,1-f:3′,4′-p][1]oxa[4,7,10,14]tetraazacycloheptadecine-7-carboxamide] | 764 | 149 | – | – | –
9 | COc1cccc2c1C(=O)N[C@H](C(=O)NCCc1ccc3c(c1)OCC3)CC(=O)N(C)[C@@H](CC(C)C)C(=O)N(CCC1CCCCC1)CC(=O)N[C@H](Cc1ccccc1)CO2 (racemic) [Example 15, (3R,9S,13RS)-3-benzyl-7-(2-cyclohexylethyl)-N-(2-(2,3-dihydrobenzofuran-6-yl)ethyl)-9-isobutyl-16-methoxy-10-methyl-5,8,11,15-tetraoxo-2,3,4,5,6,7,8,9,10,11,12,13,14,15-tetradecahydrobenzo[p][1]oxa[4,7,10,14]tetraazacycloheptadecine-13-carboxamide] | – | – | – | 240 | –
10 | COc1nc(C)cc2c1C(=O)N[C@H](C(=O)NC[C@@H](O)c1nc(C3CC3)no1)CC(=O)N(C)[C@@H](CC(C)C)C(=O)N(C)[C@H](Cc1nc(C(F)(F)F)no1)C(=O)N[C@H](Cc1ccccc1)CO2 [Example 943, (3R,6R,9S,13S)-3-benzyl-N-((R)-2-(3-cyclopropyl-1,2,4-oxadiazol-5-yl)-2-hydroxyethyl)-9-isobutyl-16-methoxy-7,10,18-trimethyl-5,8,11,15-tetraoxo-6-((3-(trifluoromethyl)-1,2,4-oxadiazol-5-yl)methyl)-2,3,4,5,6,7,8,9,10,11,12,13,14,15-tetradecahydropyrido[3,4-p][1]oxa[4,7,10,14]tetraazacycloheptadecine-13-carboxamide] | – | – | – | – | EC50 (U2OS cells, 16h compound incubation, geomean of several measurements): 240 nM; Emax (in relation to the Emax of the corrector lumacaftor (=100%), U2OS cells, 16h compound incubation, arithmetic mean): 471%
11 | COc1cccc(CCNC(=O)[C@@H]2CC(=O)N(C)[C@@H](CC(C)C)C(=O)N(C)C3(CC3)C(=O)N[C@H](Cc3ccccc3)COc3cnc4ccccc4c3C(=O)N2)c1 [Example 433, (3′S,7′S,13′R)-13′-benzyl-7′-isobutyl-N-(3-methoxyphenethyl)-6′,9′-dimethyl-1′,5′,8′,11′-tetraoxo-2′,3′,4′,5′,6′,7′,8′,9′,11′,12′,13′,14′-dodecahydro-1′H-spiro[cyclopropane-1,10′-[1]oxa[4,7,10,14]tetraazacycloheptadecino[17,16-c]quinoline]-3′-carboxamide] | 167 | 344 | – | – | –

More lines, main results first:

Row | EC50 [3] [nM] | Emax [4] [%] | SMILES | EC50 [1] [nM] | Emax [2] [%] | further results
12 | 585 | 119 | CC(C)C[C@H]1C(=O)N2CCCC[C@H]2C(=O)N[C@H](Cc2ccccc2)COc2ccc3ncccc3c2C(=O)N[C@H](C(=O)NCCc2ccc(-n3nccn3)cc2)CC(=O)N1C [Example 473, (9S,13S,19aS,22R)-N-(4-(2H-1,2,3-triazol-2-yl)phenethyl)-22-benzyl-13-isobutyl-12-methyl-7,11,14,20-tetraoxo-7,8,9,10,11,12,13,14,17,18,19,19a,20,21,22,23-hexadecahydro-16H-pyrido[2′,11:6,7][1]oxa[4,7,10,14]tetraazacycloheptadecino[16,17-f]quinoline-9-carboxamide] | – | – | –
13 | 281 | 330 | Cc1cc(CCNC(=O)[C@@H]2CC(=O)N(C)[C@@H](CC(C)C)C(=O)N(C)[C@H](C(C)C)C(=O)N[C@H](Cc3ccccc3)COc3cnc4ccccc4c3C(=O)N2)on1 [Example 547, (3S,7S,10R,13R)-13-benzyl-7-isobutyl-10-isopropyl-6,9-dimethyl-N-(2-(3-methylisoxazol-5-yl)ethyl)-1,5,8,11-tetraoxo-1,2,3,4,5,6,7,8,9,10,11,12,13,14-tetradecahydro-[1]oxa[4,7,10,14]tetraazacycloheptadecino[17,16-c]quinoline-3-carboxamide] | – | – | –
14 | 664 | 327 | Cc1cc(CCNC(=O)[C@@H]2CC(=O)N(C)[C@@H](CC(C)C)C(=O)N(C)C3(CC3)C(=O)N[C@H](Cc3ccccc3)COc3cnc4ccccc4c3C(=O)N2)on1 [Example 434, (3′S,7′S,13′R)-13′-benzyl-7′-isobutyl-6′,9′-dimethyl-N-(2-(3-methylisoxazol-5-yl)ethyl)-1′,5′,8′,11′-tetraoxo-2′,3′,4′,5′,6′,7′,8′,9′,11′,12′,13′,14′-dodecahydro-1′H-spiro[cyclopropane-1,10′-[1]oxa[4,7,10,14]tetraazacycloheptadecino[17,16-c]quinoline]-3′-carboxamide] | – | – | –
15 | 199 | 296 | Cc1cc(CCNC(=O)[C@@H]2CC(=O)N(C)[C@@H](CC(C)C)C(=O)N3CCN(CC(C)C)C[C@@H]3C(=O)N[C@H](Cc3ccccc3)COc3cnc4ccccc4c3C(=O)N2)on1 [Example 622, (9S,13S,19aR,22R)-22-benzyl-13,18-diisobutyl-12-methyl-N-(2-(3-methylisoxazol-5-yl)ethyl)-7,11,14,20-tetraoxo-7,8,9,10,11,12,13,14,17,18,19,19a,20,21,22,23-hexadecahydro-16H-pyrazino[2′,1′:6,7][1]oxa[4,7,10,14]tetraazacycloheptadecino[17,16-c]quinoline-9-carboxamide] | – | – | –

— patent US20240208992A1, “MACROCYCLES AS CFTR MODULATORS” (Idorsia Pharmaceuticals Ltd, priority 2021, published 2024)
